Literature values as cited in patent publication US20120058205A1, “COMPOSITIONS AND TREATMENT REGIMES FOR REDUCING INFLAMMATION, END-ORGAN INJURY, AND/OR SYSTEMIC ENDOTOXEMIA” (priority 2009, published 2012).

How the values were obtained:
[1] = consistently above; also printed as 500 nmol/L; possible hypercalcemia and hyperphosphatemia
[2] = animal model; also printed as ≦1,000 nmol/L
aldosterone = conditions: administration to diabetic patients

## C=C1/C(=C\C=C2/CCC[C@]3(C)[C@@H]([C@H](C)CCCC(C)(C)O)CC[C@@H]23)C[C@@H](O)C[C@@H]1O [1,25(OH)2D, 1,25-dihydroxyvitamin D]
circulating
  half-life: 15 h

## C=C1CC[C@H](O)C/C1=C/C=C1\CCC[C@]2(C)[C@@H]([C@H](C)CCCC(C)(C)O)CC[C@@H]12 [25(OH)D, 25-hydroxyvitamin D]
In vivo
  circulating half-life: 360 h
[1]
  serum concentration considered potentially toxic: above 200 ng/mL
[2]
  concentrations that demonstrated no toxicity: ≤ 400 ng/mL

## CC(=O)S[C@@H]1CC2=CC(=O)CC[C@]2(C)[C@H]2CC[C@@]3(C)[C@@H](CC[C@@]34CCC(=O)O4)[C@H]12 [spironolactone]
aldosterone
  increase of aldosterone levels: ≥ 400%
